Data set [1] is filed under the species Mus musculus. Put plainly: animal or person. The class given is functional. To be noted: sc.
Description: Subcutaneous dose at which 50% of the mouse start to lick their paws later than 10 s using hot plate assay.
The species entered for data set [2] is Mus musculus. Put plainly: animal or person. The data set is classed as functional. The settings on record: po.
Description: Peroral dose at which 50% of the mouse start to lick their paws later than 10 s using hot plate assay.
The species entered for data set [3] is Mus musculus. In words: animal or person. The class given is functional. The settings on record: in Rattus norvegicus, po, 1 h.
Description: Peroral dose inhibiting acetic acid induced writhing 1 hr after administration in 50% of the rats.
For data set [4], the species on record is Mus musculus. In words: animal or person. The data set is classed as functional. To be noted: in Rattus norvegicus, sc, 0.5 h.
Description: Subcutaneous dose inhibiting acetic acid induced writhing 0.5 hr after administration in 50% of the rats.
For data set [5], the species on record is Mus musculus. Put plainly: animal or person. To be noted: in Rattus norvegicus, sc, 8 h. The class given is functional.
Description: Subcutaneous dose inhibiting acetic acid induced writhing 8 hr after administration in 50% of the rats.
For data set [6], the species on record is Mus musculus. In words: animal or person. The class given is functional. To be noted: in Rattus norvegicus, po, 24 h.
Description: Peroral dose inhibiting acetic acid induced writhing 24 hr after administration in 50% of the rats.
For data set [7], the species on record is Mus musculus. Put plainly: animal or person. The class given is functional. The settings on record: in Rattus norvegicus, po, 8 h.
Description: Peroral dose inhibiting acetic acid induced writhing 8 hr after administration in 50% of the rats.
Data set [8] in a line: Levels of homovanillic acid (HVA) in rat brain 2 hour after an intraperitoneal injection dose. The class given is ADME, tissue-based. To be noted: in vivo, ip.
The species entered for data set [9] is Rattus norvegicus. In words: animal or person. The settings on record: ip.
Description: (§1) Intraperitoneal dose producing a block of avoidance response in 50% of the rats.
The species named for data set [10] is Rattus norvegicus. Put plainly: dose producing 50% of the theoretically obtained maximum catalepsy in rats. The class given is functional.
The subject of data set [11] is Mus musculus. In words: Intraperitoneal dose inhibiting acetic acid induced writhing in 50% of mice. The data set is classed as functional. (In writhing tests, fewer writhes than in controls are read as antinociception.)
The species named for data set [12] is Rattus norvegicus.
Description: as §1
The species named for data set [13] is Mus musculus. Put plainly: Dose at which 50% of the mouse show not more than one extension movement. The data set is classed as functional.
Setting [14] is: Rattus norvegicus, read-out: ED50.
Setting [15] is: Mus musculus, ip, read-out: ED50.

Data on 31 molecules can be found in ChEMBL document CHEMBL1122563, “Design, synthesis, and X-ray data of novel potential antipsychotic agents. Substituted 7-phenylquinolizidines: stereospecific, neuroleptic, and antinociceptive properties” (J Med Chem, 1984).

Usually ED50 stands for the midpoint of the dose-response relation. Regarding `CCCC[C@]1(OC(C)=O)CCN2C[C@H](c3ccccc3)CC[C@H]2C1`, the median effective dose (ED50) in data set [1] was determined as 100 mg/kg; in data set [2], 551 mg/kg; in data set [3], 10 mg/kg.

For `CCCC[C@@]1(OC(C)=O)CCN2C[C@H](c3ccccc3)CC[C@H]2C1`, the ED50 in data set [1] came out at 1.1 mg/kg; in [4], 0.14 mg/kg; in [5], 3.8 mg/kg; in data set [6], 69 mg/kg; in data set [7], 4.9 mg/kg.

Turning to `CC[C@]1(O)CCN2C[C@@H](c3ccc(Cl)cc3Cl)CC[C@@H]2C1`, in data set [8], the HVA level is recorded as 284%. The same molecule gave an ED50 in data set [9] above 30 mg/kg.

In turn, `CC(C)(C)[C@]1(O)CCN2C[C@@H](c3ccccc3Cl)CC[C@@H]2C1` gave an HVA level in data set [8] of 449%. Further, the ED50 in data set [10] (setting [14]) came out at 20.2 mg/kg; in [9] it was 10 mg/kg.

As for `C[C@]1(O)CCN2C[C@@H](c3ccc(Cl)cc3Cl)CC[C@@H]2C1`, the HVA level in data set [8] is 157%. In data set [9], this molecule came in with an ED50 above 30 mg/kg.

`CC(C)(C)[C@]1(O)CCN2C[C@@H](c3ccccc3)CC[C@@H]2C1.Cl` showed an HVA level in [8] of 308%. In data set [9], this molecule had an ED50 above 30 mg/kg.

In turn, `CC(C)(C)[C@]1(O)CCN2C[C@@H](c3ccc(Cl)cc3)CC[C@@H]2C1.Cl` had an HVA level in data set [8] of 290%. Besides, the ED50 was found to be 16 mg/kg in data set [10] (setting [14]) and 13.5 mg/kg in data set [9].

With `CCCC[C@@]1(OC(C)=O)CCN2C[C@@H](c3ccccc3)CC[C@@H]2C1.Cl`, the ED50 in data set [11] (setting [15]) was above 100 mg/kg.

Take `CCCC[C@]1(O)CCN2C[C@@H](c3ccc(Cl)cc3Cl)CC[C@@H]2C1.Cl`: the HVA level in data set [8] was determined as 150%. The ED50 is above 10 mg/kg in data set [10] (setting [14]) and 42 mg/kg in [9].

On to `CCC(C)[C@]1(O)CCN2C[C@@H](c3ccc(Cl)cc3Cl)CC[C@@H]2C1.Cl` (some centres not stated), for which, in data set [8], the HVA level turned out to be 467%. Further, the ED50 was 5.5 mg/kg in data set [10] (setting [14]) and 6.25 mg/kg in [9].

As for `Cl.O[C@]1(c2ccccc2)CCN2C[C@@H](c3ccccc3Cl)CC[C@@H]2C1`, in [8], the HVA level was determined as 99%. Besides, in data set [9], the ED50 was above 30 mg/kg.

In the case of `CC(=O)O[C@@]1(C(C)(C)C)CCN2C[C@@H](c3ccccc3)CC[C@@H]2C1.Cl`, the ED50 in data set [11] (setting [15]) is 2.6 mg/kg.

Regarding `CC(C)(C)[C@]1(O)CCN2C[C@@H](c3ccc(Cl)c(Cl)c3)CC[C@@H]2C1.Cl`, the HVA level in data set [8] was 190%. Further, the 50% effective dose (ED50) in data set [10] (setting [14]) is 30 mg/kg; in data set [9], above 30 mg/kg.

On to `CC(=O)O[C@@]1(c2ccccc2)CCN2C[C@@H](c3ccccc3Cl)CC[C@@H]2C1.Cl`, for which the ED50 in data set [11] (setting [15]) turned out to be 2.8 mg/kg.

In the case of `CC(=O)O[C@@]1(C(C)(C)C)CCN2C[C@@H](c3ccc(Cl)cc3Cl)CC[C@@H]2C1.Cl`, the ED50 in data set [11] (setting [15]) was 300 mg/kg.

Molecule `CC(C)(C)[C@]1(O)CCN2C[C@@H](c3cccc(Cl)c3)CC[C@@H]2C1.Cl` had an HVA level in [8] of 103%. The ED50 in data set [10] (setting [14]) and in data set [9] was above 30 mg/kg in each case.

`CC(C)[C@]1(O)CCN2C[C@@H](c3ccc(Cl)cc3Cl)CC[C@@H]2C1.Cl`: the HVA level in data set [8] amounted to 280%. In addition, the ED50 amounted to 9.2 mg/kg in [10] (setting [14]) and 17.5 mg/kg in [9].

On to `CC(C)(C)[C@]1(O)CCN2C[C@@H](c3ccc(C(F)(F)F)cc3)CC[C@@H]2C1.Cl`, for which the HVA level in data set [8] came out at 369%. The ED50 in data set [10] (setting [14]) was above 30 mg/kg; in data set [9], 18.5 mg/kg.

Take `CC(=O)O[C@@]1(C(C)(C)C)CCN2C[C@@H](c3ccc(Cl)cc3)CC[C@@H]2C1.Cl`: the ED50 in data set [11] (setting [15]) came out at 4 mg/kg.

Take `Cl.O[C@@]1(c2ccccc2)CCN2C[C@@H](c3ccccc3Cl)CC[C@@H]2C1`: the HVA level in data set [8] amounted to 340%. The ED50 was above 10 mg/kg in [10] (setting [14]) and 7 mg/kg in data set [9].

`CC(C)(C)[C@]1(O)CCN2C[C@@H](c3c(Cl)cccc3Cl)CC[C@@H]2C1.Cl`: the ED50 in data set [10] (setting [14]) and in [9] was above 30 mg/kg in each case.

Turning to `CC(=O)O[C@]1(C(C)(C)C)CCN2C[C@H](c3ccccc3Cl)CC[C@@H]2C1.Cl`, in [11] (setting [15]), the ED50 is 28 mg/kg.

In the case of `CC(C)(C)[C@]1(O)CCN2C[C@@H](c3ccc(Cl)cc3Cl)CC[C@@H]2C1.Cl` (stereo in doubt; 5e), the HVA level in [8] is 557%. Besides, the ED50 stood at 12.2 mg/kg in [10] and 6.4 mg/kg in data set [12].

For the molecule `CC(=O)O[C@@]1(C(C)(C)C)CCN2C[C@@H](c3ccccc3Cl)CC[C@@H]2C1.Cl` (stereo in doubt; 23), in data set [11] (setting [15]), the ED50 amounted to 36 mg/kg.

Regarding `CC(C)(C)[C@]1(O)CCN2C[C@@H](c3ccc(Cl)cc3Cl)CC[C@@H]2C1.Cl` (stereo in doubt; (+)-5e), in data set [8], the HVA level is 283%. Moreover, the ED50 is 28.4 mg/kg in [10] and above 30 mg/kg in [12].

Turning to `CC(C)(C)[C@@]1(O)CCN2C[C@H](c3ccccc3Cl)CC[C@@H]2C1.Cl` (stereo in doubt; (+)-5g), the ED50 in data set [11] is above 30 mg/kg.

Take `CCCC[C@@]1(O)CCN2C[C@H](c3ccccc3)CC[C@@H]2C1` (stereo in doubt; (+)-19): the ED50 in data set [11] (setting [15]) is above 30 mg/kg.

With `CC(C)(C)[C@]1(O)CCN2C[C@@H](c3ccc(Cl)cc3Cl)CC[C@@H]2C1.Cl` (stereo in doubt; (-)-5e), the HVA level in [8] was found to be 350%. For the same molecule, the ED50 in [10] came to 4.4 mg/kg; in [12], 4.7 mg/kg.

In the case of `CC(C)(C)[C@@]1(O)CCN2C[C@H](c3ccccc3Cl)CC[C@@H]2C1.Cl` (stereo in doubt; (-)-5g), the ED50 in [11] is above 10 mg/kg.

`CC(=O)O[C@@]1(C(C)(C)C)CCN2C[C@@H](c3ccccc3Cl)CC[C@@H]2C1.Cl` (stereo in doubt; (-)-23): the ED50 in [13] is above 30 mg/kg.

With `CN1CC[C@]23c4c5ccc(O)c4O[C@H]2[C@@H](O)C=C[C@H]3[C@H]1C5.Cl` [MORPHINE HYDROCHLORIDE], the ED50 is 9.6 mg/kg in data set [1]; 0.96 mg/kg in [4]; 135 mg/kg in [5]; 36 mg/kg in [2]; 2.4 mg/kg in data set [3]; above 550 mg/kg in data set [6]. For the same molecule, in data set [7], the ED50 worked out at 86 mg/kg.
